Experimental data taken from article PMC6750098, “Mechanism of DNA Lesion Homing and Recognition by the Uvr Nucleotide Excision Repair System” (Research, 2019).

Assays:
[1] = biological target: T1, UvrB (Δ594-658, domains 1a-3) ([Bacillus] caldotenax, UniProt P56981, C145S/C211S/T251C/C303S); assay: X-ray crystal structure (UvrB-dsDNA-ADP·Pi); details: crystals grown with 2 mM ATP and 5 mM MgCl2, pH 6.5, 20 °C; protein disulfide-crosslinked to 20-mer dsDNA; ATP binding site; 2.6 Å
T1 construct: residues 1-593 (domain 4 deleted, Δ594-658), all native Cys to Ser, His-tag cleaved with TEV protease, expressed in E. coli BL21(DE3) pLysS, disulfide-crosslinked to duplex DNA

[2] = biological target: T1, UvrB (Δ594-658, domains 1a-3); assay: ATP hydrolysis in crystallo, seen in crystal structure; format: biochemical; details: 2 mM ATP, 5 mM MgCl2, pH 6.5, 20 °C; protein disulfide-crosslinked to 20-mer dsDNA

T1 sequence (P56981 1-593 C145S/C211S/T251C/C303S): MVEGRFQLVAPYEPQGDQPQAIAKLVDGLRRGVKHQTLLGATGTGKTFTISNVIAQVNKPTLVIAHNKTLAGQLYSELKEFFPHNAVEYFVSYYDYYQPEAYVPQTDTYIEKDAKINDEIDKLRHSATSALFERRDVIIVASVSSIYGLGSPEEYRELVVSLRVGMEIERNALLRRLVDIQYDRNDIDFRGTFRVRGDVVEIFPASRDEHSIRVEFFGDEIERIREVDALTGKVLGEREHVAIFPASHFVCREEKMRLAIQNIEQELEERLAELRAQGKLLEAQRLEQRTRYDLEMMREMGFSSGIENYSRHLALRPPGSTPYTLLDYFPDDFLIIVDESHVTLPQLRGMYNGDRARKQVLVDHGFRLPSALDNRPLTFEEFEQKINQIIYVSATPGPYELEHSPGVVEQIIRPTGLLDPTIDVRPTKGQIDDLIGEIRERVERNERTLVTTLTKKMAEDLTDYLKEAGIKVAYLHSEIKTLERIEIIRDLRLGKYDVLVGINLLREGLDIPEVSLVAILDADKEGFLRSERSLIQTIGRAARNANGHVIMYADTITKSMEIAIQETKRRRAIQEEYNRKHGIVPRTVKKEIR

SMILES	X-ray crystal structure (UvrB-dsDNA-ADP.Pi) [1]	ATP hydrolysis in crystallo, seen in crystal structure [2]
Nc1ncnc2c1ncn2[C@@H]1O[C@H](COP(=O)(O)OP(=O)(O)O)[C@@H](O)[C@H]1O [ADP]	the electron density corresponds to ADP plus inorganic phosphate	
Nc1ncnc2c1ncn2[C@@H]1O[C@H](COP(=O)(O)OP(=O)(O)OP(=O)(O)O)[C@@H](O)[C@H]1O [ATP]		hence we conclude that the ATPase site retains activity in our crosslinked complex
